Reference: US20160355530A1, “HEPATITIS C INHIBITORS AND USES THEREOF” (AbbVie Inc., priority 2010, published 2016)
Like-named read-outs stand apart in the source and are kept apart here.

Tests used:
[1] = test system: chimeric replicon with genotype 3a NS5B; assay: microbe, parasite or virus in culture; type: cell-based, HCV genotype 3a; conditions: Hepatitis C virus, read-out: 3a chimera 5% FBS EC50
[2] = test system: HCV 1a-H77 subgenomic replicon; assay: microbe, parasite or virus in culture; type: cell-based, HCV genotype 1a; conditions: Hepatitis C virus, stable replicon
[3] = biological target: T1, HCV NS5B polymerase 1b BK strain (Hepatitis C virus genotype 1b, UniProt P26663); assay: HCV NS5B polymerase enzymatic inhibition assay, strain 1b BK; type: biochemical; conditions: enzyme, strain 1b BK; read-out: HCV Polymerase Strain 1b BK IC50
T1 construct: six-histidine tag; made in house; host or cells: E. coli
T1 sequence (P26663 2420-2989): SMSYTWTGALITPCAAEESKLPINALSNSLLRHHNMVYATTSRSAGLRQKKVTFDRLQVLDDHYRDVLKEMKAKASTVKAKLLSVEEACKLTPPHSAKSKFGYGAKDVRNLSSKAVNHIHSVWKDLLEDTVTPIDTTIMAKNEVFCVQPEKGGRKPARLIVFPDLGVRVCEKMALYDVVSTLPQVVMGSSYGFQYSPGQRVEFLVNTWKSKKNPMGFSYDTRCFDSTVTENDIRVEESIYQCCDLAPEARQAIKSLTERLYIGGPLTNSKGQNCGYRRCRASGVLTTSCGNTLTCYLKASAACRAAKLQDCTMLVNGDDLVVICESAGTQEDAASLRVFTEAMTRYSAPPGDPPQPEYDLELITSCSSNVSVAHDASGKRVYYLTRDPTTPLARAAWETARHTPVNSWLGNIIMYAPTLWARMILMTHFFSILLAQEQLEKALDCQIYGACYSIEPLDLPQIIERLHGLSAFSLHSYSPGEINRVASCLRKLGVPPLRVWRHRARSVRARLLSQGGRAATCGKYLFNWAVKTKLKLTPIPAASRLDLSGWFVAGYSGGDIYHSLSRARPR
Method in brief: (§1)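 Recombinant NS5B (residues 1–570, His-tagged, E. coli-expressed) copied 5 nM of a 2.1 kb HCV 1b negative-strand 3′-end RNA template with 20 μM CTP, 20 μM ATP and 0.284 μM [3H]UTP for 3 h at 30 °C. Spermine-precipitated RNA was filter-captured and counted, and IC50 was fitted by nonlinear regression.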

[4] = test system: chimeric replicon with genotype 4a NS5B; assay: microbe, parasite or virus in culture; type: cell-based, HCV genotype 4a; conditions: Hepatitis C virus, read-out: 4a chimera 5% FBS EC50
[5] = test system: HCV 1b-BB7 subgenomic replicon; assay: microbe, parasite or virus in culture; type: cell-based, HCV genotype 1b; conditions: Hepatitis C virus, stable replicon
[6] = test system: chimeric replicon with genotype 2b NS5B; assay: microbe, parasite or virus in culture; type: cell-based, HCV genotype 2b; conditions: Hepatitis C virus, read-out: 2b chimera 5% FBS EC50
[7] = biological target: T2, HCV NS5B polymerase 1a-H77-C316Y (Hepatitis C virus genotype 1a, UniProt P27958, C2736Y); assay: biochemical; design: species or system HCV genotype 1a
T2 construct: six-histidine tag; made in house; host or cells: E. coli
T2 sequence (P27958 2421-2990 C2736Y): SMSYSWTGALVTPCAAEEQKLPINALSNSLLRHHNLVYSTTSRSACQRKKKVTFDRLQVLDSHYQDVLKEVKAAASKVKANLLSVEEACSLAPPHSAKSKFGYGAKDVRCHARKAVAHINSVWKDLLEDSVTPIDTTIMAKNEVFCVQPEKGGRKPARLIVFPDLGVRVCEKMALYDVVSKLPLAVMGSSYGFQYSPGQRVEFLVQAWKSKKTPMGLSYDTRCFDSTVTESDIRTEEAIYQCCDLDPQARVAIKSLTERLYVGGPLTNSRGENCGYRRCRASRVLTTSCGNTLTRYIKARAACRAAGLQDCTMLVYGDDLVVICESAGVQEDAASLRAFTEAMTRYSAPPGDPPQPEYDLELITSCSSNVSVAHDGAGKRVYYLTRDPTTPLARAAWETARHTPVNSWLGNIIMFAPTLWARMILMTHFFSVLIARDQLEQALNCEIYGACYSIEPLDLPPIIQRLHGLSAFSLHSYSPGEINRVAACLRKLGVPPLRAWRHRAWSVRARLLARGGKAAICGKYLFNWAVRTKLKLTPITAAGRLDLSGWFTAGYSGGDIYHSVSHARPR
Method in brief: as §1

[8] = biological target: T3, HCV NS5B polymerase 1a-H77 (Hepatitis C virus genotype 1a, UniProt P27958); assay: biochemical; design: species or system HCV genotype 1a; conditions: enzyme, strain 1a H77; read-out: HCV Polymerase Strain 1a H77 IC50
T3 construct: six-histidine tag; made in house; host or cells: E. coli
T3 sequence (P27958 2421-2990): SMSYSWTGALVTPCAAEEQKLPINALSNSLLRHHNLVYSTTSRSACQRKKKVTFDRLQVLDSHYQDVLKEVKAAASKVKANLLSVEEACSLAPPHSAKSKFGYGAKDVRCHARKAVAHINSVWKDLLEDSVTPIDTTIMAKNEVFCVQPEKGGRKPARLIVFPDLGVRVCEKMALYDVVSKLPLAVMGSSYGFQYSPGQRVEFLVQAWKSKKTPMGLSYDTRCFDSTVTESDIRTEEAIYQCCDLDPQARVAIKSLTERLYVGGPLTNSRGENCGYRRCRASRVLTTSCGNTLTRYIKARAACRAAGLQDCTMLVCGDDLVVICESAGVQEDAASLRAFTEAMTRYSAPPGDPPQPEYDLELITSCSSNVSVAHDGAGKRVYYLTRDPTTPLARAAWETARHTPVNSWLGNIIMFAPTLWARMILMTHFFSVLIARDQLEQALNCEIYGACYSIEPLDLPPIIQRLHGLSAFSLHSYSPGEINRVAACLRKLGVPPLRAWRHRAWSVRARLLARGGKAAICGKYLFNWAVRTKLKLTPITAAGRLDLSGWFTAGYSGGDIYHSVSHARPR
Method in brief: as §1

[9] = test system: HCV NS5B polymerase 1a-H77-C316Y; assay: biochemical; design: species or system HCV genotype 1a; conditions: ratio of enzyme IC50s, 1a H77-C316Y / 1a H77
Method in brief: as §1

[10] = test system: chimeric replicon with 2a-J6CF-derived NS5B; assay: microbe, parasite or virus in culture; type: cell-based, HCV genotype 2a; conditions: Hepatitis C virus, read-out: 2a chimera 5% FBS EC50
[11] = 5% FBS, absence of human plasma, read-out: Stable Replicon 1a H77 5% FBS EC50
[12] = strain 1a H77, 5% FBS + 40% human plasma, read-out: 1a H77 5% FBS + 40% Human Plasma EC50
[13] = strain 1a H77, 5% FBS, no human plasma, read-out: 1a H77 5% FBS EC50
[14] = strain 1a H77, 5% FBS, read-out: 1a H77 5% FBS EC50
[15] = strain 1b BB7, 5% FBS + 40% human plasma, read-out: 1b BB7 5% FBS + 40% Human Plasma EC50
[16] = strain 1b BB7, 5% FBS, no human plasma, read-out: 1b BB7 5% FBS EC50
[17] = strain 1b BB7, 5% FBS, read-out: 1b BB7 5% FBS EC50

SMILES	EC50 [1]	EC50 [2, 11]	EC50 [2, 12]	EC50 [2, 13]	EC50 [2, 14]	IC50 [3]	EC50 [4]	EC50 [5, 15]	EC50 [5, 16]	EC50 [5, 17]	EC50 [6]	IC50 [7]	IC50 [8]	C316Y/1a Fold Resistance [9]	EC50 [10]
CCOP(=O)(CCCN(c1cc2oc(-c3ccc(F)cc3)c(C3=NOCCN3)c2cc1C1CC1)S(C)(=O)=O)OCC [Example 116, diethyl (3-{[5-cyclopropyl-3-(5,6-dihydro-4H-1,2,4-oxadiazin-3-yl)-2-(4-fluorophenyl)-1-benzofuran-6-yl](methylsulfonyl)amino}propyl)phosphonate]	84 nM	35.9 nM	157 nM	35.9 nM	35.9 nM	35 nM	247 nM	213 nM	32 nM	32 nM	396 nM	63 nM	7.5 nM	8 fold	535 nM
CS(=O)(=O)N(CCCC(F)(F)F)c1cc2oc(-c3ccc(F)cc3)c(C3=NOCCN3)c2cc1C1CC1 [Example 117, N-[5-cyclopropyl-3-(5,6-dihydro-4H-1,2,4-oxadiazin-3-yl)-2-(4-fluorophenyl)-1-benzofuran-6-yl]-N-(4,4,4-trifluorobutyl)methanesulfonamide]	31 nM	22 nM	159 nM	22 nM	22 nM	31 nM	233 nM	245 nM	30 nM	30 nM	240 nM	36 nM	4.5 nM	8 fold	214 nM
CS(=O)(=O)N(CCC(F)(F)F)c1cc2oc(-c3ccc(F)cc3)c(C3=NOCCN3)c2cc1C1CC1 [Example 118, N-[5-cyclopropyl-3-(5,6-dihydro-4H-1,2,4-oxadiazin-3-yl)-2-(4-fluorophenyl)-1-benzofuran-6-yl]-N-(3,3,3-trifluoropropyl)methanesulfonamide]	47 nM	19.8 nM	165 nM	19.8 nM	19.8 nM	49 nM	449 nM	253 nM	26 nM	26 nM	477 nM	114 nM	5.9 nM	19 fold	230 nM
CS(=O)(=O)N(CCCn1cccc1)c1cc2oc(-c3ccc(F)cc3)c(C3=NOCCN3)c2cc1C1CC1 [Example 119, N-[5-cyclopropyl-3-(5,6-dihydro-4H-1,2,4-oxadiazin-3-yl)-2-(4-fluorophenyl)-1-benzofuran-6-yl]-N-[3-(1H-pyrrol-1-yl)propyl]methanesulfonamide]	30 nM	19.4 nM	247 nM	19.4 nM	19.4 nM	38 nM	142 nM	129 nM	17 nM	17 nM	189 nM	41 nM	7 nM	6 fold	79 nM
CS(=O)(=O)N(CCCCC(F)=C(F)F)c1cc2oc(-c3ccc(F)cc3)c(C3=NOCCN3)c2cc1C1CC1 [Example 120, N-[5-cyclopropyl-3-(5,6-dihydro-4H-1,2,4-oxadiazin-3-yl)-2-(4-fluorophenyl)-1-benzofuran-6-yl]-N-(5,6,6-trifluorohex-5-en-1-yl)methanesulfonamide]	36 nM	17.5 nM	190 nM	17.5 nM	17.5 nM	47 nM	82 nM	189 nM	18 nM	18 nM	157 nM	28 nM	5 nM	6 fold	125 nM
CC(C)(O)CCN(c1cc2oc(-c3ccc(F)cc3)c(C3=NOCCN3)c2cc1C1CC1)S(C)(=O)=O [Example 125, N-[5-cyclopropyl-3-(5,6-dihydro-4H-1,2,4-oxadiazin-3-yl)-2-(4-fluorophenyl)-1-benzofuran-6-yl]-N-(3-hydroxy-3-methylbutyl)methanesulfonamide]	50 nM	12.6 nM	156 nM	12.6 nM	12.6 nM	60 nM	85 nM	347 nM	20 nM	20 nM	182 nM	112 nM	11 nM	10 fold	222 nM
CN(C)CCCN(c1cc2oc(-c3ccc(F)cc3)c(C3=NOCCN3)c2cc1C1CC1)S(C)(=O)=O [Example 127, N-[5-cyclopropyl-3-(5,6-dihydro-4H-1,2,4-oxadiazin-3-yl)-2-(4-fluorophenyl)-1-benzofuran-6-yl]-N-[3-(dimethylamino)propyl]methanesulfonamide]	57 nM	64.8 nM	123 nM	64.8 nM	64.8 nM	302 nM	814 nM	90 nM	21 nM	21 nM	309 nM	663 nM	25.4 nM	26 fold	344 nM
CS(=O)(=O)N(CCN1CCCC1)c1cc2oc(-c3ccc(F)cc3)c(C3=NOCCN3)c2cc1C1CC1 [Example 128, N-[5-cyclopropyl-3-(5,6-dihydro-4H-1,2,4-oxadiazin-3-yl)-2-(4-fluorophenyl)-1-benzofuran-6-yl]-N-[2-(pyrrolidin-1-yl)ethyl]methanesulfonamide]	216 nM	161 nM	383 nM	161 nM	161 nM	667 nM	> 1000 nM	268 nM	44 nM	44 nM	839 nM	995 nM	45.6 nM	22 fold	699 nM
CCN(CC)CCN(c1cc2oc(-c3ccc(F)cc3)c(C3=NOCCN3)c2cc1C1CC1)S(C)(=O)=O [Example 129, N-[5-cyclopropyl-3-(5,6-dihydro-4H-1,2,4-oxadiazin-3-yl)-2-(4-fluorophenyl)-1-benzofuran-6-yl]-N-[2-(diethylamino)ethyl]methanesulfonamide]	149 nM	80.9 nM	300 nM	80.9 nM	80.9 nM	466 nM	> 1000 nM	163 nM	38 nM	38 nM	625 nM	632 nM	24 nM	26 fold	625 nM
CCN(CC)CCCN(c1cc2oc(-c3ccc(F)cc3)c(C3=NOCCN3)c2cc1C1CC1)S(C)(=O)=O [Example 131, N-[5-cyclopropyl-3-(5,6-dihydro-4H-1,2,4-oxadiazin-3-yl)-2-(4-fluorophenyl)-1-benzofuran-6-yl]-N-[3-(diethylamino)propyl]methanesulfonamide]	131 nM	122 nM	350 nM	122 nM	122 nM	171 nM	782 nM	102 nM	26 nM	26 nM	446 nM	876 nM	30.2 nM	29 fold	380 nM
CS(=O)(=O)N(CCCN1CCCC1)c1cc2oc(-c3ccc(F)cc3)c(C3=NOCCN3)c2cc1C1CC1 [Example 132, N-[5-cyclopropyl-3-(5,6-dihydro-4H-1,2,4-oxadiazin-3-yl)-2-(4-fluorophenyl)-1-benzofuran-6-yl]-N-[3-(pyrrolidin-1-yl)propyl]methanesulfonamide]	93 nM	142 nM	313 nM	142 nM	142 nM	246 nM	> 1000 nM	122 nM	40 nM	40 nM	428 nM	934 nM	22 nM	42 fold	244 nM
